Test results reported in ChEMBL document CHEMBL1134203, “Discovery of potent and selective succinyl hydroxamate inhibitors of matrix metalloprotease-3 (stromelysin-1)” (Bioorg Med Chem Lett, 2001).

Legend:
[1] = biological target: Matrix metalloproteinase-9 (Homo sapiens, UniProt P14780)
[2] = biological target: Matrix metalloproteinase-14 (Homo sapiens, UniProt P50281)

Chain of Matrix metalloproteinase-9 (P14780 whole entry): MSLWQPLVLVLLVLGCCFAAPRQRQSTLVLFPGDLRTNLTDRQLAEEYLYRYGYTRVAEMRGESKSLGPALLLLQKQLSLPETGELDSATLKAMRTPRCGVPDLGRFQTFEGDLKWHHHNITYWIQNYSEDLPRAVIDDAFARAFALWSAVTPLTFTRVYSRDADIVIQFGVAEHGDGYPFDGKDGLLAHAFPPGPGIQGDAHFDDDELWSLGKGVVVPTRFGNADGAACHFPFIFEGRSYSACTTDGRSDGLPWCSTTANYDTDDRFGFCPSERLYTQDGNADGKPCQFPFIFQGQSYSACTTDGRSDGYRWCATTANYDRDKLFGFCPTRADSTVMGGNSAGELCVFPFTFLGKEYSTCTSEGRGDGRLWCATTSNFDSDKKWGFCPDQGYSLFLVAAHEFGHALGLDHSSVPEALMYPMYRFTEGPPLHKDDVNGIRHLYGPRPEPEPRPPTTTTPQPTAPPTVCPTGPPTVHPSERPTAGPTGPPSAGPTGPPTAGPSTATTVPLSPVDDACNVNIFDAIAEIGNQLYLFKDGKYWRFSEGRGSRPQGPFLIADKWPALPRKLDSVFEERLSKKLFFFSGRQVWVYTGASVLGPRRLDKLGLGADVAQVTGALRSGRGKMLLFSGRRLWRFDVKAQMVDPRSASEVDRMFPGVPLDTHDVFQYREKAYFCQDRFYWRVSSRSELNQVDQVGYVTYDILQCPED

IC50 [1]: 0.84 µM | IC50 [2]: 1.9 µM
Structure (SMILES): Cc1cc(CCC[C@H](CC(=O)NO)C(=O)N[C@H](C(=O)N[C@H](C)c2ccccc2)C(C)(C)C)ccc1-c1ccccc1
